Reference: patent US10111437B2, “Substituted guanidines as fungicides” (Nippon Soda Co., Ltd., priority 2015, dated 2018)

Key:
[1] = test system: Apple scab fungus (Venturia inaequalis); experiment: Apple scab control test (foliar spray on apple seedlings); assay type: in vivo; conditions: 125 ppm active ingredient, sprayed on apple seedlings (variety Orin) before inoculation, vs untreated
Procedure: The dilution was sprayed to apple seedlings (variety “Orin”, 3 to 4 leaf stage) grown in clay pots. […] The control value was calculated by the following equation. [formula]

[2] = test system: wheat leaf rust fungus (Puccinia recondita); experiment: Wheat leaf rust control test (foliar spray on wheat seedlings); assay type: in vivo; conditions: 240 h, 125 ppm active ingredient, sprayed on wheat seedlings (variety Norin 61) before inoculation, 10 days, vs untreated
[3] = test system: Tomato late blight fungus (Phytophthora infestans); experiment: whole plant or invertebrate; assay type: in vivo; conditions: foliar, 96 h, read-out: control value
[4] = test system: cucumber gray mold fungus (Botrytis cinerea); experiment: Cucumber gray mold control test (foliar spray on cucumber seedlings); conditions: in Cucumis sativus, 96 h, read-out: control value

Measured: pest or weed control at 125 ppm

N=C(N)c1ccc(OCCCCN2CCN(CCCCOc3ccc(C(=N)N)cc3)C2=N)cc1 [compound 6, 4-[4-[3-[4-(4-carbamimidoylphenoxy)butyl]-2-imino-imidazolidin-1-yl]butoxy]benzamidine]
≥ 75%: all assays above

N=C(N)NCCCCCCCN1CCN(CCCCCCCNC(=N)N)C1=N [compound 8, 1-[7-[3-(7-guanidinoheptyl)-2-imino-imidazolidin-1-yl]heptyl]guanidine]
≥ 75%: all assays above

N=C(NCCCCOc1ccc(C(=N)N)cc1)NCCCCOc1ccc(C(=N)N)cc1 [compound 10, 4-[4-[[N-[4-(4-carbamimidoylphenoxy)butyl]carbamimidoyl]amino]butoxy]benzamidine]
≥ 75%: all assays above

N=C(NCCCC#Cc1ccc(C(=N)N)cc1)NCCCC#Cc1ccc(C(=N)N)cc1 [compound 22, 4-[5-[[N-[5-(4-carbamimidoylphenyl)pent-4-ynyl]carbamimidoyl]amino]pent-1-ynyl]benzamidine]
≥ 75%: all assays above

N=C(N)NCCCCCCCn1ccn(CCCOc2ccc(C(=N)N)cc2)c1=N [compound 25, 4-[3-[3-(7-guanidinoheptyl)-2-imino-imidazol-1-yl]propoxy]benzamidine]
≥ 75%: all assays above

N=C(N)NCCCCCCCNC(=N)NCCCOc1ccc(C(=N)N)cc1 [compound 29, 4-[3-[[N-(7-guanidinoheptyl)carbamimidoyl]amino]propoxy]benzamidine]
≥ 75%: all assays above

N=C(N)NCCCCCCCNC(=N)NCCCCOc1ccc(C(=N)N)cn1 [compound 32, 6-(4-(3-(7-guanidinoheptyl)guanidino)butoxy)nicotinimidamide]
≥ 75%: all assays above

N=C(N)NCCCCCCCNC(=N)NCCCc1cc2cc(C(=N)N)ccc2o1 [compound 34, 2-(3-(3-(7-guanidinoheptyl)guanidino)propyl)benzofuran-5-carboximidamide]
≥ 75%: all assays above

N=C(N)c1ccc(OCCCCn2ccn(CCCOc3ccc(C(=N)N)cc3)c2=N)cc1 [compound 40, 4-[4-[3-[3-(4-carbamimidoylphenoxy)propyl]-2-imino-imidazol-1-yl]butoxy]benzamidine]
≥ 75%: all assays above

N=C(NCCCOc1ccc(C(=N)N)cc1)NCCCOc1ccc(C(=N)N)cc1 [compound 42, 4-[3-[[N-[3-(4-carbamimidoylphenoxy)propyl]carbamimidoyl]amino]propoxy]benzamidine]
≥ 75%: all assays above

N=C(N)NCCCCCCCn1ccn(CCCCOc2ccc(C(=N)N)cc2)c1=N [compound 52, 4-[4-[3-(7-guanidinoheptyl)-2-imino-imidazol-1-yl]butoxy]benzamidine]
≥ 75%: all assays above

CN=C(NCCCOc1ccc(C(=N)N)cc1)NCCCOc1ccc(C(=N)N)cc1 [compound 57, 4-[3-[[N-[3-(4-carbamimidoylphenoxy)propyl]-N′-methyl-carbamimidoyl]amino]propoxy]benzamidine]
≥ 75%: all assays above

N=C(N)NCCCCCCCCNC(=N)NCCCCOc1ccc(C(=N)N)cn1 [compound 61, 6-[4-[[N-(8-guanidinooctyl)carbamimidoyl]amino]butoxy]pyridine-3-carboxamidine]
≥ 75%: all assays above

N=C(N)c1ccc(OCCCn2ccn(CCCOc3ccc(C(=N)N)cc3)c2=N)cc1 [compound 89]
≥ 75%: [1] | [2] | [3]

N=C(N)c1ccc(OCCCn2ccn(CCCOc3ccc(C(=N)N)c(F)c3)c2=N)cc1F [compound 103]
≥ 75%: all assays above

Cc1cn(CCCCOc2ccc(C(=N)N)cc2)c(=N)n1CCCCOc1ccc(C(=N)N)cc1 [compound 107]
≥ 75%: all assays above

Cc1c(C)n(CCCOc2ccc(C(=N)N)cc2)c(=N)n1CCCOc1ccc(C(=N)N)cc1 [compound 109]
≥ 75%: all assays above

N=C(N)NCCCCCCCCNC(=N)NCCCOc1ccc(C(=N)N)cc1Cl [compound 112]
≥ 75%: all assays above

N=C(N)NCCCCCCCCn1ccn(CCOc2ccc(C3=NCCCN3)cc2)c1=N [compound 270]
≥ 75%: [1] | [2] | [3]

N=C(N)NCCCCCCCCn1ccn(CCOc2ccc(C(=N)N)cc2)c1=N [compound 281]
≥ 75%: [2] | [3] | [4]

N=C(N)NCCCCCCCCNC(=N)NCCOc1ccc2cc(C3=NCCCN3)ccc2c1 [compound 292]
≥ 75%: [1] | [2] | [3]
